Legend:
[1] = Merck Index; cited from earlier work
[2] = Dissolution of coumarin from PL75D/TP blend cap-coated shims in PBS; format: physicochemical; conditions: FIG. 19
Procedure: P[…] was dried at 70° C. at reduced pressure overnight. The dried pellets were compressed between two plates that were pre-heated to 230° C. and maintained for about 5 minutes. After the sample was cooled down to room temperature, it was placed in a vial filled with THF and stirred until dissolved (by visual observation). […] Coumarin was also dissolved in THF. The concentrations of all the solutions were about 1 wt-%. TL solution and coumarin solution were mixed at a weigh ratio of 1:1. This mixture is the base coating solution of a reservoir system. TP solution and P[…] solution were mixed at various weight ratios to make five different mixtures with the weight ratios of TP to P[…] being 100:0, 75:25, 50:50, 25:75, and 0:100. These solutions are referred to herein as cap coating solutions of the reservoir system. Dissolution samples were prepared with stainless steel (316L) shims (12.1×38.1 mm^2) that were cleaned by rinsing with THF. The cleaned shims were coated with the […] solution. The coated shims were allowed to dry overnight under nitrogen. […] This thermal treatment led to formation of a primer on the surface of the shims that promoted their adhesion with polymer/active agent layers. […] The concentration of coumarin in all these solutions was measured with a liquid chromatography (HP 1090) that was equipped with a UV detector. […]

Release rates from the PL75D/TP blends ([2]; cap coat blends): between that from the two pure polymers
SMILES: O=c1ccc2ccccc2o1 [coumarin]
Volume of cold water that dissolves one gram [1]: 400 mL
Release rate, pure cap-coat polymers compared ([2]; 100% PL75D versus 100% TP cap coat): release much faster from a 100% PL75D coated shim than that from 100% TP coated shim

From US20040086569A1, “Active agent delivery systems, medical devices, and methods” (Medtronic, Inc., priority 2002, published 2004)
